Assay results taken from ChEMBL document CHEMBL5108037, “Cyclic Peptide Screening Methods for Preclinical Drug Discovery” (J Med Chem, 2022).
Values belong to the compound of their own block, whether it stands above or below them. Starred links: 1 amine or outer side, 2 acyl side, 3 side chain; linkers in the order of their positions; H or OH if unused. Positions of bridges follow the written chain, without caps; N, C: chain ends. Non-standard residues stand in square brackets, D forms with d. Residues, ends and D or L forms follow the SMILES beside them. Gly((CH2)5SH) = N[C@@H](CCCCCS)C(=O)O; mXylylene = c1cc(C[*:1])cc(C[*:2])c1; Nle = CCCC[C@H](N)C(=O)O; βAla = NCCC(=O)O

Experiments:
[1] = Binding affinity to Carbonic anhydrase (unknown origin) assessed as dissociation constant by isothermal titration calorimetry; design: species or system Homo sapiens
[2] = target: T1, Protein deacetylase HDAC6 (Homo sapiens, UniProt Q9UBN7); assay: Inhibition of HDAC6 (unknown origin)
T1 sequence (Q9UBN7 whole entry): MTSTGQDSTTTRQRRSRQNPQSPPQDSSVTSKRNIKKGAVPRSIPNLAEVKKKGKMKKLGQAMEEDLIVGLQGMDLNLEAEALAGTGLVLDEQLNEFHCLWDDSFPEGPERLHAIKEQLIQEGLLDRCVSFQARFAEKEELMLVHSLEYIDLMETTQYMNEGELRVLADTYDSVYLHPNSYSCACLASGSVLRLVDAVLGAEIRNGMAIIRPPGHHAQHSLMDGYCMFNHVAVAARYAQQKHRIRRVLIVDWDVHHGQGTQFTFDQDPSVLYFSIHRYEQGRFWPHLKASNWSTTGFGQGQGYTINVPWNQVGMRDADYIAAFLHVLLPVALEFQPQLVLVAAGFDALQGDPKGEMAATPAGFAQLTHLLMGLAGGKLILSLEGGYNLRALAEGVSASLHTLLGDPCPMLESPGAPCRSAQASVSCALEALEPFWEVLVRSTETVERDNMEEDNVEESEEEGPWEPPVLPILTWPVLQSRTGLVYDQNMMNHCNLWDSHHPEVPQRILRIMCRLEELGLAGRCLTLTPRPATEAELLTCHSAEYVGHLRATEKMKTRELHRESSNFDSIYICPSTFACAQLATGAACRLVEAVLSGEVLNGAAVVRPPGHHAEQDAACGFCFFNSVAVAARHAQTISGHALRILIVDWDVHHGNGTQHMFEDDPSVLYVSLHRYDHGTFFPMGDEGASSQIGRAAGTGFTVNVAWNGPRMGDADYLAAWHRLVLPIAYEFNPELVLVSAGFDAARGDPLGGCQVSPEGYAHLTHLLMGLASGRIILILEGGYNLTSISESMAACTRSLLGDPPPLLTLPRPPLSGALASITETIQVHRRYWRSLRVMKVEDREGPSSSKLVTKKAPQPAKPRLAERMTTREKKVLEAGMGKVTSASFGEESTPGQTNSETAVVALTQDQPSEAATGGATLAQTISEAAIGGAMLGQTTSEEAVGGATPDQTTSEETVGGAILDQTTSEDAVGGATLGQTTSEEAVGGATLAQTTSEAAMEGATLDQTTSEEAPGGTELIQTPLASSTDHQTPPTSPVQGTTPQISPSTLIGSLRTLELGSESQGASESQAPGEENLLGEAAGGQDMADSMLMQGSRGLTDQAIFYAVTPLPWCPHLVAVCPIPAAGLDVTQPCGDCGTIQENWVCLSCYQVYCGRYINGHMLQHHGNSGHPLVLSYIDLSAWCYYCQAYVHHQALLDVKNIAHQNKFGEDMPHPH

[3] = Antiproliferative activity against human LNCaP-95 cells assessed as cell growth inhibition measured after 24 hrs by CellTiter-Glo assay; assay type: functional, cell-based; conditions: LNCaP-95, 24 h
[4] = Antiproliferative activity against human LNCaP-abl cells assessed as cell growth inhibition measured after 24 hrs by CellTiter-Glo assay; assay type: functional, cell-based
[5] = Inhibition of NDM-1 (unknown origin); design: species or system Bacteria
[6] = Inhibition of TEV protease using Cy5-ENLYFQGK(QSY21)-NH2 as substrate incubated for 1 hr by fluorescence based analysis; design: species or system Tobacco etch virus
[7] = target: T2, TCF4-CTNNB1 complex (Homo sapiens, UniProt P35222); assay: Inhibition of FITC-labeled Tcf4 (unknown origin) / full length beta-catenin (1 to 781 residues) (unknown origin) protein-protein interaction measured after 1 hr by fluorescence polarization assay; assay type: protein-complex assay
T2 sequence (P35222 whole entry): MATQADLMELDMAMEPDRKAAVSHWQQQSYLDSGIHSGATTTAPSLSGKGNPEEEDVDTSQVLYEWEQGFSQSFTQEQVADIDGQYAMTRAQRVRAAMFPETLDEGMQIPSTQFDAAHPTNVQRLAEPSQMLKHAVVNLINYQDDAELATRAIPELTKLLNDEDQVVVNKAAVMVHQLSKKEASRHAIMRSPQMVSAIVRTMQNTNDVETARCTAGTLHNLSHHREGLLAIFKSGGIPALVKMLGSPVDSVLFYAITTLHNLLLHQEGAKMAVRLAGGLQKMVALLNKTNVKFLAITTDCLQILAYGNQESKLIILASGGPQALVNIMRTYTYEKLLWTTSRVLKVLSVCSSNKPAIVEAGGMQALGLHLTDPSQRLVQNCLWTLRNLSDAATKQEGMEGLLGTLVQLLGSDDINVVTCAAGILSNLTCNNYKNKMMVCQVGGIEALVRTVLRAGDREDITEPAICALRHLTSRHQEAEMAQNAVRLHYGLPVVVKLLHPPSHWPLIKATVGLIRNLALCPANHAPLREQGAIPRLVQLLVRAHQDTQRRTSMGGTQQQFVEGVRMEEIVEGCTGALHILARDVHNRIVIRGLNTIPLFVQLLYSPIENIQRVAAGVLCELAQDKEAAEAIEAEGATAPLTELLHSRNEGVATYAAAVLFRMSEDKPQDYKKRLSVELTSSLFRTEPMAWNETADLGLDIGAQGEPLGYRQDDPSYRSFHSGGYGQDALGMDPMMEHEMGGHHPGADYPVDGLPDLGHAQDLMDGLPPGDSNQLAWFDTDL
T2 sequence (P15884 whole entry): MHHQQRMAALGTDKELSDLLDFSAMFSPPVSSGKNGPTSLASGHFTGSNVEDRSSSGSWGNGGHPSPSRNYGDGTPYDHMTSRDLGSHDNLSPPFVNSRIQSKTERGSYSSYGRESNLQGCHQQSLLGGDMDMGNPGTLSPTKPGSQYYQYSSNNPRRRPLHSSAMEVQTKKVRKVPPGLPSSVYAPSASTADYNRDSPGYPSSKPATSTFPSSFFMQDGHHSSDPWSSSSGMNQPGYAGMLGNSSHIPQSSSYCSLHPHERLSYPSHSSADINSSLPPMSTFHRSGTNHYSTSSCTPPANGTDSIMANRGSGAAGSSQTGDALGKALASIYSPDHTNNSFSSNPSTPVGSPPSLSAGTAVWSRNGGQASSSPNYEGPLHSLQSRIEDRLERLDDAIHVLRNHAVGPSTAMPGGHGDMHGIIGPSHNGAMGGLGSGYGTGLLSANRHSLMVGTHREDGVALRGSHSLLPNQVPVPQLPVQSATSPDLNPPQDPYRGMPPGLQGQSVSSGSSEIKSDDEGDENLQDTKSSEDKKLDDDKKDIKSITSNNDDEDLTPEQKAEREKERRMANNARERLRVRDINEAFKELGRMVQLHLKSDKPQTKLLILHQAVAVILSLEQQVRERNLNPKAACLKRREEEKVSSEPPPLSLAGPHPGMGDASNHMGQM

[8] = Inhibition of FphF (unknown origin) using Cy5-ENLYFQGK(QSY21)-NH2 as substrate incubated for 1 hr by fluorescence based analysis; design: species or system Homo sapiens

Compound: NNc1ccc(S(N)(=O)=O)cc1
- Kd [1]: 50 µM

Compound: COc1ccc([C@H](C)N2CC(=O)N(CCCOC(C)C)CC(=O)N(c3cc(OC)cc(OC)c3)CC(=O)N(CCc3ccccc3Oc3ccccc3)CC(=O)N[C@H](C)C(=O)N([C@@H](C)c3ccc(OC)cc3)CC2=O)cc1
- IC50 [3]: 0.782 µM
- IC50 [4]: 0.195 µM

Compound: C[C@@H](CS)C(=O)N1CCC[C@@H]1C(=O)O
- IC50 [5]: 59.7 µM

Compound: CSCC[C@@H]1NC(=O)[C@H](Cc2ccc(O)cc2)NC(=O)[C@@H](NC(=O)[C@H](C)N)CSC/C(=N\OCC(=O)NC/C=C/S(C)(=O)=O)CSC[C@@H](C(=O)NCC(=O)O)NC(=O)[C@H](CC(C)C)NC(=O)[C@H](Cc2ccc(O)cc2)NC(=O)[C@H](CC(C)C)NC(=O)[C@@H]2CCCN2C(=O)[C@H](CCC(=O)O)NC(=O)[C@H](CCC(N)=O)NC1=O
- IC50 [6]: 0.73 µM

Compound: CSCC[C@@H]1NC(=O)[C@H](Cc2c[nH]c3ccccc23)NC(=O)[C@H](CCCNC(=N)N)NC(=O)[C@H](Cc2c[nH]c3ccccc23)NC(=O)[C@H](CCCNC(=N)N)NC(=O)[C@H](C)NC(=O)[C@@H](NC(=O)[C@@H](N)C(C)C)CSC/C(=N/OCC(=O)CP(=O)(Oc2ccccc2)Oc2ccccc2)CSC[C@@H](C(=O)NCC(=O)O)NC(=O)[C@@H]2CCCN2C1=O
- IC50 [8]: 0.647 µM

The next lines start with the values.

- IC50 [2]: 0.017 µM
Compound: CCCC[C@@H]1NC(=O)[C@H](Cc2ccccc2)NC(=O)[C@H](CCCCCS)NC(=O)[C@H](CCCNC(=N)N)NC(=O)[C@H](CC(=O)O)NC(=O)[C@H](CO)NC(=O)[C@H](C)NC(=O)[C@H](CCCCN)NC1=O (cyclo(ASDR[Gly((CH2)5SH)]F[Nle]K))

- IC50 [7]: 4.8 µM
Compound: CC(C)C[C@@H]1NC(=O)[C@@H]2CSCc3cccc(c3)CSC[C@H](NC(=O)[C@H](CC(N)=O)NC(=O)[C@H](CCCNC(=N)N)NC(=O)[C@H]([C@@H](C)O)NC(=O)[C@H](C(C)C)NC(=O)CCNC(=O)CCNC(=O)[C@H](Cc3ccccc3)NC(=O)[C@H](C(C)C)NC(=O)[C@H](CC(C)C)NC1=O)C(=O)N[C@@H](C(C)C)C(=O)N1CCC[C@H]1C(=O)N1CCC[C@H]1C(=O)N[C@@H](CC(=O)O)C(=O)N2 (cyclo(CLLVF[βAla][βAla]VTRNCVPPD); linker 1-12 via mXylylene)
